Measurements as given in US20240335541A1, “NANOMATERIALS COMPRISING DIAMINES” (Beam Therapeutics Inc., priority 2021, published 2024).

Tests used:
Test in all cases: Barcoded pooled LNP biodistribution screen, fold above input (FAI)
Type in all cases: in vivo
[1] = system: Spleen; details: pooled LNP IV tail vein, mice, 4 hours post-dose
Protocol: (§1) Male and female mice aged approximately 8-12 weeks were used for studies described by the present Example. Each mouse was temporarily restrained and pooled LNP was administered IV via tail vein injection in up to five animals per experiment. Age-matched mice was also used to administer vehicle (1×TBS) via tail vein injection in up to three animals per experiment. Additional routes of administration can also be conducted including intracerebral ventricular (ICV), intracisterna manga (ICM), intrathecal (IT), intramuscular (IM), nebulization, intranasal (IN), subcutaneous (SC), intraarticular, and intradermal (ID). At 4 hours post-dose, tissues including liver, spleen, bone marrow, testes, gastrocnemius, quadricep, lung, heart, kidney, and pancreas may be collected for analysis.
(§2) Liver, kidney, lung, and muscle (e.g. skeletal and cardiac) tissues may be mechanically, and then enzymatically digested using a mixture of proteinases, then passed through a 70 μm filter to generate single cell suspensions. Spleen tissues were mechanically digested to generate single cell suspensions. Tissues were treated with ACK buffer to lyse red blood cells, and then stained with fluorescently-labeled antibodies for flow cytometry and fluorescence-activated cell sorting (FACS). Commercially available antibodies were used in the present example. Using a BD FACSMelody (Becton Dickinson), samples were acquired via flow cytometry to generate gates prior to sorting. In general, the gating structure was size→singlet cells→live cells→cells of interest. T cells were defined as CD45+CD3+, monocytes are defined as CD45+CD11b+, and B cells are defined as CD45+CD19+. Endothelial cells were defined as CD31+, monocytes and Kupffer cells as CD45+CD11b+ and hepatocytes and myocytes were defined as CD31−/CD45− in the liver and muscle, respectively. Tissues from vehicle-dosed mice were used to set the gates for sorting.
(§3) RNA from tissues were extracted using the Reliaprep RNA extraction kit, and libraries were prepared using the RNAseq kit, and sequenced on either a MiSeq or NextSeq500.
(§4) To screen for preferential LNP delivery to a target tissues, the relative abundance of each barcode in one or more target tissues was measured and compared to the relative abundance of each barcode to its corresponding relative input abundance to determine fold above input (FAI) for each barcode. If the FAI of a barcode in a target tissue is above a threshold or above the FAI of a different LNP in the same tissue, the LNP can be identified as preferentially delivering to the target tissue.
(§5) The FAI is the normalized relative abundance of a barcode in a selected sample as compared to its frequency in the input. The FAI of a barcode indicates how a LNP's abundance changes relative to the rest of the LNP pool. The FAI value of the barcode was calculated by normalizing the relative abundance in the barcode sequence counts in the isolated samples to its relative abundance in the administration input. […] The FAI then indicates the performance of an LNP relative to the input LNP composition.

[2] = system: Liver; details: Table 4 screening experiment; pooled LNP IV tail vein, mice, 4 hours post-dose
Protocol: as §1, §2, §3, §4, §5

[3] = system: Lung; details: pooled LNP IV tail vein, mice, 4 hours post-dose
Protocol: as §1, §2, §3, §4, §5

CCCCC/C=C\C/C=C\CCCCCCCCC(CCCCCCCC/C=C\C/C=C\CCCCC)OC(=O)CCCN(C)C [MC3, (6Z,9Z,28Z,31Z)-heptatriaconta-6,9,28,31-tetraen-19-yl 4-(dimethylamino) butanoate]
FAI (Spleen) ([1]; Table 4 screening experiment): 1.94
FAI (Spleen) ([1]; Table 5 screening experiment): 0.39
FAI (Liver) [2]: 0.86
FAI (Lung) ([3]; Table 4 screening experiment): 1.13
FAI (Lung) ([3]; Table 5 screening experiment): 0.50
